In publication PMC8956739, “A synthetic lipopeptide targeting top-priority multidrug-resistant Gram-negative pathogens” (Nature Communications, 2022):
≈ marks a conversion by molar mass, not a printed value. Like-named read-outs stand apart in the source and are kept apart here. Residues, ends and D or L forms follow the SMILES beside them.

Key:
[1] = test system: P. aeruginosa FADDI-PA038; format: cell-based, Pseudomonas aeruginosa
Description: (§1) MICs were determined in cation-adjusted Mueller–Hinton broth (CaMHB) by the broth micro-dilution method against ATCC strains and clinical isolates. MICs in the presence of Survanta® were determined as described above against P. aeruginosa ATCC 27853. In the 100 μL of fresh CaMHB containing polymyxins, 10% Survanta® (v/v, 2.5 mg/mL phospholipids) was added. MICs in the presence and absence of Survanta® were compared to determine the effect of binding to lung surfactant on the antibacterial activity of polymyxins.

P. aeruginosa ATCC 27853 = format: cell-based, Pseudomonas aeruginosa
Description: as §1

[2] = test system: P. aeruginosa FADDI-PA025; format: cell-based, Pseudomonas aeruginosa
Description: as §1

A. baumannii FADDI-AB030 = format: cell-based, Acinetobacter baumannii
Description: as §1

A. baumannii FADDI-AB034 = format: cell-based, Acinetobacter baumannii
Description: as §1

A. baumannii ATCC 19606 = format: cell-based, Acinetobacter baumannii
Description: as §1

[3] = test system: K. pneumoniae FADDI-KP032; format: cell-based, Klebsiella pneumoniae
Description: as §1

[4] = test system: K. pneumoniae FADDI-KP065; format: cell-based, Klebsiella pneumoniae
Description: as §1

Swiss mice, kidney = experiment: Nephrotoxicity in mice (kidney histopathology); format: in vivo, mouse; conditions: for Kidney histopathology (SQS Score): 72 mg/kg/d subcutaneously in six divided doses every 2 h, n = 3; for Kidney histopathology, mice with the SQS score: mouse, in vivo
Description: The experimental methodology has been previously reported by our group. Briefly, individual lipopeptide solutions were prepared in sterile saline (6 mg/mL). Swiss mice (female, 7-week-old, 22–28 g) were subcutaneously administered at 12 mg/kg in, 6 doses every 2 h to reach a total dose of 72 mg/kg (n = 3). For high-dose nephrotoxicity experiments, mice were intraperitoneally administered at 20 or 25 mg/kg, in 6 doses every 2 h to reach a total dose of 120 mg/kg (n = 6) or 150 mg/kg (n = 3). At 20 h after the last dose, the right kidney from each mouse was collected and placed in 10% buffered (pH 7.4) formalin (Sigma-Aldrich, Castle Hill, NSW, Australia). The kidneys were subjected to histological examination at the Australian Phenomics Network-Histopathology and Organ Pathology (University of Melbourne, Parkville, VIC, Australia), who was blind to the treatment groups.

Row | SMILES | MIC P. aeruginosa FADDI-PA038 ([1]; carbapenem-resistant isolate) [µg/mL] | MIC P. aeruginosa ATCC 27853 (P. aeruginosa ATCC 27853) [µg/mL] | MIC, 10% Survanta (P. aeruginosa ATCC 27853; P. aeruginosa ATCC 27853, 10% Survanta) [µg/mL] | MIC, No Survanta (P. aeruginosa ATCC 27853; P. aeruginosa ATCC 27853, no surfactant) [µg/mL] | MIC P. aeruginosa FADDI-PA025 ([2]; MDR clinical isolate) [µg/mL] | MIC A. baumannii FADDI-AB030 (A. baumannii FADDI-AB030; carbapenem-resistant isolate) [µg/mL] | MIC A. baumannii FADDI-AB034 (A. baumannii FADDI-AB034; carbapenem-resistant isolate) [µg/mL] | MIC A. baumannii ATCC 19606 (A. baumannii ATCC 19606) [µg/mL] | MIC K. pneumoniae FADDI-KP032 ([3]; carbapenem-resistant isolate) [µg/mL] | MIC K. pneumoniae FADDI-KP065 ([4]; carbapenem-resistant isolate) [µg/mL] | MIC P. aeruginosa FADDI-PA038 ([1]; FADDI-PA038) [µg/mL] | MIC P. aeruginosa ATCC 27853 (P. aeruginosa ATCC 27853; ATCC 27853) [µg/mL] | MIC P. aeruginosa FADDI-PA025 ([2]; FADDI-PA025) [µg/mL] | Kidney histopathology (SQS Score) (Swiss mice, kidney) | Kidney histopathology, mice with the SQS score (Swiss mice, kidney) | MIC A. baumannii FADDI-AB030 (A. baumannii FADDI-AB030; FADDI-AB030) [µg/mL] | MIC A. baumannii FADDI-AB034 (A. baumannii FADDI-AB034; FADDI-AB034) [µg/mL] | MIC A. baumannii ATCC 19606 (A. baumannii ATCC 19606; ATCC 19606) [µg/mL] | MIC K. pneumoniae FADDI-KP032 ([3]; FADDI-KP032) [µg/mL] | MIC K. pneumoniae FADDI-KP065 ([4]; FADDI-KP065) [µg/mL]
1 | CC[C@@H]1NC(=O)[C@@H](CC(C)C)NC(=O)[C@H](CCN)NC(=O)[C@@H](NC(=O)[C@H](CN)NC(=O)[C@@H](NC(=O)[C@H](CCN)NC(=O)c2ccccc2Cl)[C@@H](C)O)CCNC(=O)[C@H]([C@@H](C)O)NC(=O)[C@H](CCN)NC(=O)[C@H](CCN)NC1=O [Lipopeptide F350] (HELM PEPTIDE1{[O=C(c1ccccc1Cl)[*:2]].[Dab].T.[NC[C@H](N[*:1])C(=O)[*:2]].[Dab].[Dab].[dL].[Abu].[Dab].[Dab].T}$PEPTIDE1,PEPTIDE1,5:R3-11:R2$$$V2.0; bridges inferred) | 2 (≈ 1.78 µM) | 0.5 (≈ 0.444 µM) | 0.5 (≈ 0.444 µM) | 0.5 (≈ 0.444 µM) | 4 (≈ 3.55 µM) | 4 (≈ 3.55 µM) | 4 (≈ 3.55 µM) | 8 (≈ 7.11 µM) | 1 (≈ 0.888 µM) | 0.5 (≈ 0.444 µM) | – | – | – | – | – | – | – | – | – | –
2 | CCCCCCCC(=O)N[C@@H](CCN)C(=O)N[C@H](C(=O)N[C@@H](CCN)C(=O)N[C@H]1CCNC(=O)[C@H]([C@@H](C)O)NC(=O)[C@H](CCN)NC(=O)[C@H](CCN)NC(=O)[C@H]([C@@H](C)O)NC(=O)[C@@H]([C@H](C)O)NC(=O)[C@H](CCN)NC1=O)[C@@H](C)O [Lipopeptide F230] (HELM PEPTIDE1{[CCCCCCCC(=O)[*:2]].[Dab].T.[Dab].[Dab].[Dab].[dT].T.[Dab].[Dab].T}$PEPTIDE1,PEPTIDE1,5:R3-11:R2$$$V2.0) | – | – | – | – | – | – | – | – | – | – | >32 | >32 | >32 | 0 (SQS 0 = no significant change (overall score, <1)) | 3/3 | >32 | >32 | >32 | 16 (≈ 14.1 µM) | 32 (≈ 28.3 µM)
3 | CCCCCCCC(=O)N[C@@H](CCN)C(=O)N[C@H](C(=O)N[C@@H](CCN)C(=O)N[C@H]1CCNC(=O)[C@H]([C@@H](C)O)NC(=O)[C@H](CCN)NC(=O)[C@H](CCN)NC(=O)[C@H]([C@@H](C)O)NC(=O)[C@@H](C(C)C)NC(=O)[C@H](CCN)NC1=O)[C@@H](C)O [Lipopeptide F229] (HELM PEPTIDE1{[CCCCCCCC(=O)[*:2]].[Dab].T.[Dab].[Dab].[Dab].[dV].T.[Dab].[Dab].T}$PEPTIDE1,PEPTIDE1,5:R3-11:R2$$$V2.0) | – | – | – | – | – | – | – | – | – | – | >32 | >32 | >32 | 0 (SQS 0 = no significant change (overall score, <1)) | 3/3 | 32 (≈ 28.3 µM) | >32 | >32 | 1 (≈ 0.885 µM) | 2 (≈ 1.77 µM)
